Data reported in ChEMBL document CHEMBL1201862, “PubChem BioAssay data set” (2004).
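Interpolation was linear, between the two tested concentrations surrounding the appropriate level; five concentrations were tested over 48 hours in 96-well plates. The concentration for 50% growth inhibition is given as GI50.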 Calls of active or inactive are those of the source. Rule as the data show it: active = GI50 up to about 1.1 µM and inactive = higher. Residues, ends and D or L forms follow the SMILES beside them. *: point of attachment. Boc = CC(C)(C)OC(=O)*; OBn = c1ccc(CO*)cc1; Bn = c1ccc(C*)cc1

What was measured:
Assay in all cases: inhibition of tumour cell growth, NCI panel, 48 h
[1] = test system: OVCAR-8
[2] = test system: RXF 393
[3] = test system: ACHN
[4] = test system: DU-145
[5] = test system: SK-MEL-2
[6] = test system: MCF7
[7] = test system: KM12
[8] = test system: A549
[9] = test system: CAKI-1
[10] = test system: 786-0
[11] = test system: HCT-15
[12] = test system: A498
[13] = test system: SK-MEL-28
[14] = test system: MOLT-4
[15] = test system: NCI/ADR-RES
[16] = test system: SN12C
[17] = test system: Malme-3M
[18] = test system: COLO 205
[19] = test system: HOP-92
[20] = test system: Hs-578T

| SMILES | GI50 [1] | GI50 [2] | GI50 [3] | GI50 [4] | GI50 [5] | GI50 [6] | GI50 [7] | GI50 [8] | GI50 [9] | GI50 [10] | GI50 [11] | GI50 [12] | GI50 [13] | GI50 [14] | GI50 [15] | GI50 [16] | GI50 [17] | GI50 [18] | GI50 [19] | GI50 [20] |
| --- | --- | --- | --- | --- | --- | --- | --- | --- | --- | --- | --- | --- | --- | --- | --- | --- | --- | --- | --- | --- |
| C1CCC2C(C1)CCCC2NC1=NCCO1 (stereo not given) | > 100 µM (inactive) | 86.7 µM (inactive) | > 100 µM (inactive) | > 100 µM (inactive) | > 100 µM (inactive) | 69.2 µM (inactive) | > 100 µM (inactive) | > 100 µM (inactive) | > 100 µM (inactive) | > 100 µM (inactive) | > 100 µM | > 100 µM (inactive) | 76 µM (inactive) | > 100 µM (inactive) | > 100 µM (inactive) | > 100 µM (inactive) | > 100 µM (inactive) | > 100 µM (inactive) |  |  |
| N#CC(c1nc2ccccc2s1)c1ncnc(Cl)c1[N+](=O)[O-] (stereo not given) | 18.5 µM (inactive) | 25.5 µM (inactive) | 37.6 µM (inactive) | 34.1 µM (inactive) |  |  | 32.5 µM (inactive) | 36.3 µM (inactive) | 25.2 µM (inactive) | 20.1 µM (inactive) | 17.9 µM | > 100 µM (inactive) | 19.9 µM (inactive) | 31.8 µM (inactive) | 17.8 µM (inactive) | 18.2 µM (inactive) | 19.4 µM (inactive) | 15.5 µM (inactive) | 17.3 µM (inactive) |  |
| O=[N+]([O-])C(/C(Cl)=C(/Cl)N1CCOCC1)=C1\Nc2ccccc2O1 | > 100 µM (inactive) |  | > 100 µM (inactive) | 70.3 µM (inactive) | > 100 µM (inactive) | > 100 µM (inactive) | > 100 µM (inactive) | > 100 µM (inactive) | > 100 µM (inactive) | > 100 µM (inactive) | > 100 µM | > 100 µM (inactive) | > 100 µM (inactive) | > 100 µM (inactive) | 83.2 µM (inactive) | > 100 µM (inactive) | > 100 µM (inactive) | > 100 µM (inactive) |  | > 100 µM (inactive) |
| COc1c2cc(C(C)(C)C)cc1Cc1cccc(c1OCc1cccc([N+](=O)[O-])c1)Cc1cc(C(C)(C)C)cc(c1OC)Cc1cccc(c1OCc1cccc([N+](=O)[O-])c1)Cc1cc(C(C)(C)C)cc(c1OC)Cc1cccc(c1OCc1cccc([N+](=O)[O-])c1)C2 | > 50 µM (inactive) | > 50 µM (inactive) | > 50 µM (inactive) | > 50 µM (inactive) | > 50 µM (inactive) | > 50 µM (inactive) | > 50 µM (inactive) | > 50 µM (inactive) | > 50 µM (inactive) | > 50 µM (inactive) | > 50 µM | > 50 µM (inactive) | > 50 µM (inactive) | > 50 µM (inactive) | > 50 µM (inactive) | > 50 µM (inactive) | > 50 µM (inactive) | > 50 µM (inactive) | > 50 µM (inactive) |  |
| O=c1oc2c(Cl)cc(Cl)cc2cc1C1=CSC2=NCCN12 | 63.7 µM (inactive) | 34.2 µM (inactive) | 49.7 µM (inactive) | 40.1 µM (inactive) | > 100 µM (inactive) | 28.8 µM (inactive) | 57.8 µM (inactive) | 64.3 µM (inactive) | 52.2 µM (inactive) | 40.8 µM (inactive) | 44.7 µM |  | 47.1 µM (inactive) | 39.3 µM (inactive) | 79.6 µM (inactive) | 51.8 µM (inactive) |  | > 100 µM (inactive) | 28.6 µM (inactive) |  |
| CC(C)CC(NC(=O)C(Cc1ccccc1)NC(=O)C(COCc1ccccc1)NC(=O)OC(C)(C)C)C(=O)OCc1ccccc1 (stereo not drawn) (Boc-Ser(Bn)-Phe-Leu-OBn; configuration not given here) | 18.7 µM (inactive) |  | 17.9 µM (inactive) | 9.57 µM (inactive) | 56.6 µM (inactive) | 37.9 µM (inactive) |  |  | 30 µM (inactive) | 17.1 µM (inactive) | 16.3 µM | 95.9 µM (inactive) | 19.5 µM (inactive) | 13.9 µM (inactive) | > 100 µM (inactive) | 25.8 µM (inactive) | 78.2 µM (inactive) | 17.5 µM (inactive) |  |  |
| Cc1csc2n(C)c(=O)c3ccccc3[n+]12 | > 100 µM (inactive) | > 100 µM (inactive) | > 100 µM (inactive) | > 100 µM (inactive) | > 100 µM (inactive) | > 100 µM (inactive) | > 100 µM (inactive) | > 100 µM (inactive) | > 100 µM (inactive) | > 100 µM (inactive) | > 100 µM |  | > 100 µM (inactive) | > 100 µM (inactive) | > 100 µM (inactive) | > 100 µM (inactive) |  | > 100 µM (inactive) |  | > 100 µM (inactive) |
| COc1cc(/C=C2\N=C(C)N(n3c(-c4ccccc4)nc4ccccc4c3=O)C2=O)cc(OC)c1OC | > 100 µM (inactive) |  | > 100 µM (inactive) | > 100 µM (inactive) |  | > 100 µM (inactive) | > 100 µM (inactive) | > 100 µM (inactive) | > 100 µM (inactive) | > 100 µM (inactive) | > 100 µM | > 100 µM (inactive) | > 100 µM (inactive) | > 100 µM (inactive) |  | > 100 µM (inactive) | > 100 µM (inactive) | > 100 µM (inactive) |  | > 100 µM (inactive) |
| Cc1nn(C(=O)c2ccccc2O)c2c1C(c1ccccc1)SC(=N)N2 (stereo not given) | 0.867 µM (active) | > 10 µM (inactive) | 0.419 µM (active) | 0.627 µM (active) | 3.58 µM (inactive) | 2.81 µM (inactive) | 3.53 µM (inactive) | 0.6 µM (active) | 0.547 µM (active) | 1.57 µM (inactive) | 3.86 µM |  | > 10 µM (inactive) | 2.75 µM (inactive) | 1.56 µM (inactive) | 2.25 µM (inactive) | 0.479 µM (active) | 3.87 µM (inactive) |  | 0.7 µM (active) |
| CCC(C=O)P1(=O)OC(C)(C)CN1C(C)(C)C (stereo not given) | > 100 µM (inactive) |  | > 100 µM (inactive) | > 100 µM (inactive) | 34.9 µM (inactive) | 84.3 µM (inactive) | 24.4 µM (inactive) | > 100 µM (inactive) | > 100 µM (inactive) | > 100 µM (inactive) | 99.8 µM | 81.8 µM (inactive) |  |  | 92.3 µM (inactive) |  | 68.1 µM (inactive) | > 100 µM (inactive) |  |  |
| COc1cc(C2c3cc4c(cc3[C@@H](Nc3ccc5c(c3)OCCO5)C3COC(=O)[C@H]23)OCO4)cc(OC)c1O (stereo not given in full) | 0.693 µM (active) | 0.453 µM (active) | 0.585 µM (active) | 0.743 µM (active) | 2.19 µM (inactive) | 0.802 µM (active) | 1.85 µM (inactive) | 0.104 µM (active) | 0.113 µM (active) | 0.199 µM (active) | 1.25 µM | 0.19 µM (active) | 2.05 µM (inactive) | 0.035 µM (active) | 1.07 µM (active) | 0.627 µM (active) | 1.6 µM (inactive) | 0.918 µM (active) | 0.478 µM (active) |  |
| O=S(=O)(CCC[C@H]1[C@@H](CCOCc2ccccc2)C2CCCN1O2)c1ccccc1 (stereo not given in full) | > 100 µM (inactive) | > 100 µM (inactive) | > 100 µM (inactive) |  |  | > 100 µM (inactive) | > 100 µM (inactive) | > 100 µM (inactive) | > 100 µM (inactive) | > 100 µM (inactive) | > 100 µM | > 100 µM (inactive) | > 100 µM (inactive) | 65.3 µM (inactive) | > 100 µM (inactive) | > 100 µM (inactive) | > 100 µM (inactive) | > 100 µM (inactive) | > 100 µM (inactive) | > 100 µM (inactive) |
| CCCC(=O)NC(Nc1ccc(S(=O)(=O)Nc2ccc(OC)nn2)cc1)(C(F)(F)F)C(F)(F)F | > 100 µM (inactive) | > 100 µM (inactive) | > 100 µM (inactive) | > 100 µM (inactive) | > 100 µM (inactive) |  | > 100 µM (inactive) | > 100 µM (inactive) | > 100 µM (inactive) | > 100 µM (inactive) | > 100 µM | 87.9 µM (inactive) | > 100 µM (inactive) | > 100 µM (inactive) | > 100 µM (inactive) | > 100 µM (inactive) | > 100 µM (inactive) | > 100 µM (inactive) | > 100 µM (inactive) | > 100 µM (inactive) |
| COc1cccc(C2c3cc4c(cc3OC(NNC(N)=O)C2C)OCO4)c1OC (stereo not given) | 4.32 µM (inactive) | 14.1 µM (inactive) | 26.9 µM (inactive) | 20.9 µM (inactive) | 20.5 µM (inactive) | 31 µM (inactive) | 23.2 µM (inactive) | 19.6 µM (inactive) | 24.5 µM (inactive) | 4.76 µM (inactive) | 9.23 µM | 18.2 µM (inactive) | 21.4 µM (inactive) | 16.5 µM (inactive) |  | 27 µM (inactive) | 25.9 µM (inactive) | 14.7 µM (inactive) | 19.1 µM (inactive) | 19.7 µM (inactive) |
| CSc1ccc2c(cc1=O)C(NC(=O)c1cc(O)c(OC(=O)O)c(O)c1)CCc1cc(O)c(O)c(O)c1-2 (stereo not given) | 28.9 µM (inactive) | 25.9 µM (inactive) | 33.8 µM (inactive) |  | > 89.9 µM (inactive) |  | 22.8 µM (inactive) | 19.5 µM (inactive) | 19.3 µM (inactive) | 34 µM (inactive) | 16.1 µM | 36.1 µM (inactive) | 24.4 µM (inactive) | 16.7 µM (inactive) |  | 13.3 µM (inactive) | 35 µM (inactive) | 30.3 µM (inactive) | 22.8 µM (inactive) |  |
